Laboratory results reported in patent US4362725A, “Cephalosporins” (Dr. Karl Thomae Gesellschaft mit beschrankter Haftung, priority 1980, dated 1982).
Values after ≈ are worked out from the molar mass of the structure shown.

How the values were obtained:
[1] = tested on: Pseudomonas aeruginosa hamburgensis; assay: In vitro serial dilution test in the microtiter system (MIC), Pseudomonas Hbg.; type: cell-based; conditions: 18 to 20 h at 37° C., read-out: MIC Pseud. aerug. Hbg.
Procedure: (§1) The tests were performed using the serial dilution test in the microtiter system. The effect of the test compound on bacteristasis was examined in a liquid medium at the following concentrations: >64, 64 32, 16, 8, 4, 2, 1, 0.5, 0.25, 0.125, 0.06, 0.03 and 0.015 μgm/ml. The nutrient medium consisted of 10 gm of peptone, 8 gm of meat extract oxoid, 3 gm of sodium chloride, and 2 gm of sec. sodium phosphate diluted with distilled water to […] (pH 7.2-7.4). Only in the test against streptococci 1% of glucose was added. The age of the primary cultures was approximately 20 hours. The standardization of the bacteria suspension was effected using a photometer according to the method of Eppendorf (test tube .phi.-mm, filter 546 nm), using for comparison a barium sulfate suspension formed by the addition of 3.0 ml of 1% barium chloride solution to 97 ml of 1% sulfuric acid. After standardization, the test microorganisms were further diluted to a concentration of 1:1500, using a sodium chloride solution.
(§2) 16 mgm of the particular test compound were put into a 10 ml measuring flask, and the flask was subsequently filled to the mark with solvent. The further dilution series was standardized with distilled water or the appropriate solvent.
(§3) The cavities of the microtiter plates were filled with 0.2 ml of nutrient medium. 0.01 ml of the appropriate test compound solution was then added, followed by inoculation with 0.01 ml (1 drop) of the standardized bacteria suspension. The bacteria were incubated at 37° C. for 18 to 20 hours. Control tests using only the solvent were carried out simultaneously.
(§4) The readings were made macroscopically to determine the minimum inhibitory concentration (the lowest still bacteriostatically effective concentration).
(§5) The following test organisms were used:
(§6) Staphylococcus aureus SG 511, Escherichia coli ATCC11 775, Pseudomonas aeruginosa hamburgensis and Pseudomonas aeruginosa BC 19, Serratia marcescens ATCC 13 880, Klebsiella pneumoniae ATCC 10 031 and BC 6, Proteus mirabilis BC 17, Proteus rettgeri BC 7, Enterobacter Cloaceae ATCC 13047 and E. coli R+TEM (β-lactamase carrier).

[2] = tested on: Pseudomonas aeruginosa BC 19; assay: In vitro serial dilution test in the microtiter system (MIC), Pseudomonas BC 19; type: cell-based; conditions: BC19, 18 to 20 h at 37° C., read-out: MIC Pseud. aerug. BC 19
Procedure: as §1, §2, §3, §4, §5, §6

[3] = tested on: Serratia marcescens ATCC 13 880; assay: In vitro serial dilution test in the microtiter system (MIC), Serratia; type: cell-based; conditions: 18 to 20 h at 37° C., read-out: MIC Ser. marcesc. ATCC 13880
Procedure: as §1, §2, §3, §4, §5, §6

[4] = tested on: Klebsiella pneumoniae BC 6; assay: In vitro serial dilution test in the microtiter system (MIC), Klebsiella BC 6; type: cell-based; conditions: BC6, 18 to 20 h at 37° C., read-out: MIC Klebs. pneum. BC 6
Procedure: as §1, §2, §3, §4, §5, §6

[5] = tested on: Escherichia coli ATCC11 775; assay: In vitro serial dilution test in the microtiter system (MIC), E. coli; type: cell-based; conditions: 18 to 20 h at 37° C., read-out: MIC E. coli ATCC 11775
Procedure: as §1, §2, §3, §4, §5, §6

[6] = tested on: Staphylococcus aureus SG 511; assay: In vitro serial dilution test in the microtiter system (MIC), S. aureus; type: cell-based; conditions: SG511, 18 to 20 h at 37° C.
Procedure: as §1, §2, §3, §4, §5, §6

[7] = tested on: Enterobacter Cloaceae ATCC 13047; assay: In vitro serial dilution test in the microtiter system (MIC), Enterobacter; type: cell-based; conditions: ATCC13047, 18 to 20 h at 37° C., read-out: MIC Eb. cloaceae
Procedure: as §1, §2, §3, §4, §5, §6

E. coli ATCC 11 775 = assay: In vivo activity in mice, experimental E. coli infection; set-up: species or system mice (female, NMRI strain); conditions: Escherichia coli, ATCC11, sc, 168 h; s.c., once 1 hour after i.p. E. coli infection; 7 days observation; read-out: ED50 (dose at which 50% of the animals survive)
Procedure: (§7) Several of the compounds of this invention were tested in vivo against experimental infections in mice. E. coli ATCC 11 775 and Pseudomonas aeruginosa BC 19 were used as the pathogenic bacteria. An interaperitoneal infection was induced with 0.2 ml of a bacterial suspension (containing 5% of mucin). This corresponds to approximately 1.4×10^6 E. coli germs or to 1.3×10^6 pseudomonas germs per mouse. Female mice of the NMRI strain were divided up into groups of 10 animals of which 2 groups remained untreated while the remaining groups were subcutaneously administered various doses of the particular cephalosporins according to the invention for the purpose of determining the ED50 (dose at which 50% of the animals survive). In the case of the E. coli infection, the treatment was applied once (1 hour after infection) while the pseudomonas infection was treated 3 times (1, 3 and 5 hours after infection).
(§8) In both cases, the observation period was 7 days. The results of these tests, carried out with typical representatives of the cephalosporins according to the invention, are shown in Table 3 below.

[8] = tested on: Klebsiella pneumoniae ATCC 10 031; assay: In vitro serial dilution test in the microtiter system (MIC), Klebsiella ATCC 10031; type: cell-based; conditions: 18 to 20 h at 37° C., read-out: MIC Klebs. pneum. ATCC 10031
Procedure: as §1, §2, §3, §4, §5, §6

Proteus mirabilis BC 17 = assay: In vitro serial dilution test in the microtiter system (MIC), Proteus mirabilis; type: cell-based; conditions: BC17, 18 to 20 h at 37° C., read-out: MIC Prot. mir. BC 17
Procedure: as §1, §2, §3, §4, §5, §6

Proteus rettgeri BC 7 = assay: In vitro serial dilution test in the microtiter system (MIC), Proteus rettgeri; type: cell-based; conditions: Providencia rettgeri, BC7; 18 to 20 h at 37° C.; read-out: MIC Prot. rettg. BC 7
Procedure: as §1, §2, §3, §4, §5, §6

[9] = tested on: E. coli R+TEM (β-lactamase carrier); assay: In vitro serial dilution test in the microtiter system (MIC), E. coli R+TEM; type: cell-based; conditions: Escherichia coli, read-out: MIC E. coli R + TEM
Procedure: as §1, §2, §3, §4, §5, §6

[10] = tested on: Pseudomonas aeruginosa BC 19; assay: In vivo activity in mice, experimental Pseudomonas infection; set-up: species or system mice (female, NMRI strain); conditions: BC19, sc, 168 h, per dose, s.c., 3 times (1, 3 and 5 hours after i.p. Pseudomonas infection), 7 days observation, read-out: ED50 (dose at which 50% of the animals survive)
Procedure: as §7, §8

SMILES	MIC [1] [mg/L]	MIC [2] [mg/L]	MIC [3] [mg/L]	MIC [4] [mg/L]	MIC [5] [mg/L]	MIC [6] [mg/L]	MIC [7] [mg/L]	ED50 (E. coli ATCC 11 775) [mg/kg]	MIC [8] [mg/L]	MIC (Proteus mirabilis BC 17) [mg/L]	MIC (Proteus rettgeri BC 7) [mg/L]	MIC [9] [mg/L]	ED50 [10] [mg/kg]
CO/N=C(\C(=O)N[C@@H]1C(=O)N2C(C(=O)O)=C(COC(N)=O)CS[C@H]12)c1ccco1 [Cefuroxim, reference compound]	> 100	> 100	8 (≈ 18.9 µM)	4 (≈ 9.43 µM)	8 (≈ 18.9 µM)	1 (≈ 2.36 µM)	32 (≈ 75.4 µM)	> 100	2 (≈ 4.71 µM)	0.5 (≈ 1.18 µM)	2 (≈ 4.71 µM)	4	
Cc1nnc(SCC2=C(C(=O)O)N3C(=O)[C@@H](NC(=O)Cn4cnnn4)[C@H]3SC2)s1 [Cephazolin, reference compound]	> 100	> 100	> 100	2 (≈ 4.4 µM)	4 (≈ 8.8 µM)	0.06 (≈ 0.132 µM)	> 100		1 (≈ 2.2 µM)	4 (≈ 8.8 µM)	> 100	4	
NS(=O)(=O)c1ccc(Nc2ncc(NC(=O)NC(C(=O)N[C@@H]3C(=O)N4C(C(=O)O)=C(CSc5nnnn5CC(=O)O)CS[C@H]34)c3ccc(O)cc3)c(O)n2)cc1 (stereo partly drawn) [Compound 5]	8 (≈ 9.65 µM)	8 (≈ 9.65 µM)	0.5 (≈ 0.603 µM)	0.5 (≈ 0.603 µM)	0.5 (≈ 0.603 µM)	4 (≈ 4.83 µM)	2 (≈ 2.41 µM)		0.5 (≈ 0.603 µM)	0.12 (≈ 0.145 µM)	0.25 (≈ 0.302 µM)	32	
NS(=O)(=O)c1ccc(Nc2ncc(NC(=O)NC(C(=O)N[C@@H]3C(=O)N4C(C(=O)O)=C(CSc5nnnn5CCO)CS[C@H]34)c3ccc(O)cc3)c(O)n2)cc1 (stereo partly drawn) [Compound 7]	4 (≈ 4.91 µM)	4 (≈ 4.91 µM)	0.12 (≈ 0.147 µM)	0.12 (≈ 0.147 µM)	0.03 (≈ 0.0368 µM)	1 (≈ 1.23 µM)	0.25 (≈ 0.307 µM)	~0.3	0.12 (≈ 0.147 µM)	0.06 (≈ 0.0736 µM)	0.25 (≈ 0.307 µM)	4	6.3
Cn1c(SCC2=C(C(=O)O)N3C(=O)[C@@H](NC(=O)C(NC(=O)Nc4cnc(Nc5ccc(S(N)(=O)=O)cc5)nc4O)c4ccc(O)cc4)[C@H]3SC2)nnc(O)c1=O (stereo partly drawn) [Compound 16]	8 (≈ 9.66 µM)	4 (≈ 4.83 µM)	0.25 (≈ 0.302 µM)	0.25 (≈ 0.302 µM)	0.12 (≈ 0.145 µM)	0.12 (≈ 0.145 µM)	0.25 (≈ 0.302 µM)	~0.8	0.12 (≈ 0.145 µM)	0.12 (≈ 0.145 µM)	0.25 (≈ 0.302 µM)	4	10 to 20
C[S+]([O-])CCn1nnnc1SCC1=C(C(=O)O)N2C(=O)[C@@H](NC(=O)C(NC(=O)Nc3cnc(Nc4ccc(S(N)(=O)=O)cc4)nc3O)c3ccc(O)cc3)[C@H]2SC1 (stereo partly drawn) [Compound 21]	8 (≈ 9.29 µM)	8 (≈ 9.29 µM)	0.25 (≈ 0.29 µM)	0.25 (≈ 0.29 µM)	0.12 (≈ 0.139 µM)	1 (≈ 1.16 µM)			0.25 (≈ 0.29 µM)	0.12 (≈ 0.139 µM)	0.5 (≈ 0.581 µM)	8	
CS(=O)(=O)CCn1nnnc1SCC1=C(C(=O)O)N2C(=O)[C@@H](NC(=O)C(NC(=O)Nc3cnc(Nc4ccc(S(N)(=O)=O)cc4)nc3O)c3ccc(O)cc3)[C@H]2SC1 (stereo partly drawn) [Compound 30]	8 (≈ 9.12 µM)	4 (≈ 4.56 µM)	0.5 (≈ 0.57 µM)	0.5 (≈ 0.57 µM)	0.12 (≈ 0.137 µM)	2 (≈ 2.28 µM)	0.5 (≈ 0.57 µM)	~0.6	0.5 (≈ 0.57 µM)	0.06 (≈ 0.0684 µM)	1 (≈ 1.14 µM)	8	10 to 20
CS(=O)(=O)NCCn1nnnc1SCC1=C(C(=O)O)N2C(=O)[C@@H](NC(=O)C(NC(=O)Nc3cnc(Nc4ccc(S(N)(=O)=O)cc4)nc3O)c3ccc(O)cc3)[C@H]2SC1 (stereo partly drawn) [Compound 36]	4 (≈ 4.48 µM)	2 (≈ 2.24 µM)	0.25 (≈ 0.28 µM)	0.12 (≈ 0.135 µM)	0.03 (≈ 0.0336 µM)	2 (≈ 2.24 µM)	0.12 (≈ 0.135 µM)		0.12 (≈ 0.135 µM)	0.06 (≈ 0.0673 µM)	0.25 (≈ 0.28 µM)	8	
CC(=O)NCCn1nnnc1SCC1=C(C(=O)O)N2C(=O)[C@@H](NC(=O)C(NC(=O)Nc3cnc(Nc4ccc(S(N)(=O)=O)cc4)nc3O)c3ccc(O)cc3)[C@H]2SC1 (stereo partly drawn) [Compound 37]	8 (≈ 9.35 µM)	4 (≈ 4.67 µM)	0.12 (≈ 0.14 µM)	0.12 (≈ 0.14 µM)	0.12 (≈ 0.14 µM)	2 (≈ 2.34 µM)	0.12 (≈ 0.14 µM)		0.12 (≈ 0.14 µM)	0.06 (≈ 0.0701 µM)	0.25 (≈ 0.292 µM)	8	
